Laboratory results reported in patent US8686041B2, “Inhibition of ornithine aminotransferase for the treatment of proliferative disorders” (Hadasit Medical Research Services & Development, Ltd., priority 2006, dated 2014).

How the values were obtained:
[1] = test system: HEP3B; test: αFP secretion by HCC cell lines with Gabaculine analogue 8; format: cell-based, human; conditions: 48 hours
Experimental: (§1) 1×10^5 cells/well of each of Hep3b and HepG2 hepatocellular carcinoma cell lines were plated in triplicate and incubated at 37° C. Gabaculine analogue 8 was added to wells at varying concentrations (0.1 μg/ml, 1 μg/ml, 10 μg/ml and 50 μg/ml). Cells returned to incubator for further incubation of 48 hours. In the fourth day of the experiment, one ml of supernatant from each well was transferred to eppendorf tubes and analyzed for αFP concentration. αFP levels were checked using the Abbott Diagnostic AxSYM system. Encouraged by the in vitro and in vivo results of inhibiting OAT using Gabaculine, the inventors next examined the in vitro effect of a further OAT inhibitor, Gabaculine analogue 8 (LHJ-II-79), on AFP secretion from two different HCC cell lines. Therefore, Hep3b and HepG2 hepatocellular carcinoma cell lines were detached from culture dishes using trypsin-EDTA, re-plated in triplicates in 12 well culture dishes (1×10^5 cells/well) and incubated at 37° C. Gabaculine analogue 8 was added to wells at varying concentrations (0.1 μg/ml, 1 μg/ml, 10 μg/ml and 50 μg/ml). After 48 hours, cell supernatant was analyzed for AFP concentration.

[2] = test system: HepG2; test: as above; format: cell-based, human; conditions: 48 hours
Experimental: as §1

[3] = 0.1-50 μg/ml, effect concentration dependent

Cl.NC1CC(C(=O)O)CC1=C=C(C(F)(F)F)C(F)(F)F (stereo not shown) [analogue 8, 1-carboxy-3-amino-4-bis(trifluoromethyl)vinylidene cyclopentane hydrochloride]
AFP secretion by the cells, in words [1, 3]: significant reduction of AFP secretion | AVG results AF ([1]; EXP. I, 10 ug/ml, 1:5 dil, CONTROL 42.52): 37.96 ng/mL | AVG results AF ([1]; EXP. I, 50 ug/ml, 1:5 dil, CONTROL 42.52): 18.52 ng/mL | AVG results AF ([1]; EXP. II, 0.1 ug/ml, 1:5 dil, CONTROL 13.42): 12.66 ng/mL | AVG results AF ([1]; EXP. II, 1 ug/ml, 1:5 dil, CONTROL 13.42): 11.92 ng/mL | AVG results AF ([1]; EXP. II, 10 ug/ml, 1:5 dil, CONTROL 13.42): 9.63 ng/mL | AVG results AF ([1]; EXP. II, 50 ug/ml, 1:5 dil, CONTROL 13.42): 9.37 ng/mL | AVG results AF ([1]; EXP. III, 10 ug/ml, 1:5 dil, CONTROL 11.39): 10.97 ng/mL | AVG results AF ([1]; EXP. III, 50 ug/ml, 1:5 dil, CONTROL 11.39): 6.98 ng/mL | AVG results AF ([1]; EXP. IV, 10 ug/ml, 1:2 dil, CONTROL 18.45): 13.73 ng/mL | AVG results AF ([1]; EXP. IV, 50 ug/ml, 1:2 dil, CONTROL 18.45): 11.30 ng/mL | AFP secretion by the cells, in words [2, 3]: significant reduction of AFP secretion | AVG results AF ([2]; EXP. I, 10 ug/ml, 1:100 dil, CONTROL 34.19): 37.98 ng/mL | AVG results AF ([2]; EXP. I, 50 ug/ml, 1:100 dil, CONTROL 34.19): 23.54 ng/mL | AVG results AF ([2]; EXP. II, 0.1 ug/ml, 1:100 dil, CONTROL 11.93): 11.92 ng/mL | AVG results AF ([2]; EXP. II, 1 ug/ml, 1:100 dil, CONTROL 11.93): 12.85 ng/mL | AVG results AF ([2]; EXP. II, 10 ug/ml, 1:100 dil, CONTROL 11.93): 11.38 ng/mL | AVG results AF ([2]; EXP. II, 50 ug/ml, 1:100 dil, CONTROL 11.93): 8.54 ng/mL | AVG results AF ([2]; EXP. III, 10 ug/ml, 1:100 dil, CONTROL 12.07): 10.67 ng/mL | AVG results AF ([2]; EXP. III, 50 ug/ml, 1:100 dil, CONTROL 12.07): 7.57 ng/mL | AVG results AF ([2]; EXP. IV, 10 ug/ml, 1:50 dil, CONTROL 13.32): 12.74 ng/mL | AVG results AF ([2]; EXP. IV, 50 ug/ml, 1:50 dil, CONTROL 13.32): 8.94 ng/mL
